From paper doi:10.1101/2025.09.29.679234, “Engineered antimicrobial-derived peptides to manipulate mixed microbial systems” (bioRxiv, 2025)
Where two headings read alike, the source gives them in different places. No end group written: not given here.

Tested on: L. seeligeri
Format: cell-based, Listeria seeligeri
Conditions: for antimicrobial activity (in words): kill curve / growth inhibition, Figures S7 and S9
Procedure: To determine the potency of the purified pediocin PA-1, we generated kill-curves against a range of target bacteria (Figure 1B). The concentration range tested was 3 pM to 3 μM following 10-fold serial dilutions. […] This is in approximate agreement with the published potency of pediocin PA-1 [28] . Though the molecular mass of pediocin PA-1 is expected to be 4.5 kDa, we observed the partially purified peptide to migrate with an apparent mass of ~12.5 kDa (Figure 1B). However, subsequent analysis by LC-MS yielded peaks of multiple m/z with the predominant peak at the expected molecular size of 4.6 kDa (Figure S4). The purified pediocin PA-1, separated on denaturing but non-reducing SDS-PAGE (since this bacteriocin contains two crucial disulfide bonds), was subjected to agar-overlay assay using L. seeligeri as indicator organism (Figure S5).
The antimicrobial spectrum of pediocin PA-1 was assayed using a kill curve. Cultures grown overnight were resuspended in fresh medium at an OD600 of 0.05. EC50 was determined by incubating cells with varying concentrations of pediocin in a 96-well plate, and growth was measured at 600 nm after 24 h.
Figure S7. Growth inhibition of L. seeligeri by modified and unmodified pediocin PA-1.

Compound	antimicrobial activity (in words)	antimicrobial activity (in words) (listed as conjugate to NBD)	EC50 (24 h) [nM]
synthetic pediocin-NBD conjugate: NBD (7-nitrobenz-2-oxa-1,3-diazole) conjugated to the synthetic pediocin using EDC-NHS coupling (KYYGNGVTCGKHSCSVDWGKATTCIINNGAMAWATGGHQGNHKC; disulfide (positions not given here); ends not checked; also: NBD conjugated via EDC-NHS, site not given here; UniProt P29430 19-62, looked up)	inactive	very low activity	
CC[C@H](C)[C@@H]1NC(=O)[C@@H](NC(=O)[C@@H](NC(=O)[C@@H](NC(=O)[C@H](C)NC(=O)[C@H](CCCCN)NC(=O)CNC(=O)[C@H](Cc2c[nH]c3ccccc23)NC(=O)[C@H](CC(=O)O)NC(=O)[C@@H](NC(=O)[C@H](CO)NC(=O)[C@@H]2CSSC[C@H](NC(=O)[C@@H](NC(=O)[C@@H](NC(=O)CNC(=O)[C@H](CC(N)=O)NC(=O)CNC(=O)[C@H](Cc3ccc(O)cc3)NC(=O)[C@H](Cc3ccc(O)cc3)NC(=O)[C@@H](N)CCCCN)C(C)C)[C@@H](C)O)C(=O)NCC(=O)N[C@@H](CCCCN)C(=O)N[C@@H](Cc3c[nH]cn3)C(=O)N[C@@H](CO)C(=O)N2)C(C)C)[C@@H](C)O)[C@@H](C)O)CSSC[C@@H](C(N)=O)NC(=O)[C@H](CCCCN)NC(=O)[C@H](Cc2c[nH]cn2)NC(=O)[C@H](CC(N)=O)NC(=O)CNC(=O)[C@H](CCC(N)=O)NC(=O)[C@H](Cc2c[nH]cn2)NC(=O)CNC(=O)CNC(=O)[C@H]([C@@H](C)O)NC(=O)[C@H](C)NC(=O)[C@H](Cc2c[nH]c3ccccc23)NC(=O)[C@H](C)NC(=O)[C@H](CCSC)NC(=O)[C@H](C)NC(=O)CNC(=O)[C@H](CC(N)=O)NC(=O)[C@H](CC(N)=O)NC(=O)[C@H]([C@@H](C)CC)NC1=O [pediocin PA-1 from Biomatik, reference compound]	very low activity		
CC[C@H](C)[C@@H]1NC(=O)[C@@H](NC(=O)[C@@H](NC(=O)[C@@H](NC(=O)[C@H](C)NC(=O)[C@H](CCCCN)NC(=O)CNC(=O)[C@H](Cc2c[nH]c3ccccc23)NC(=O)[C@H](CC(=O)O)NC(=O)[C@@H](NC(=O)[C@H](CO)NC(=O)[C@@H]2CSSC[C@H](NC(=O)[C@@H](NC(=O)[C@@H](NC(=O)CNC(=O)[C@H](CC(N)=O)NC(=O)CNC(=O)[C@H](Cc3ccc(O)cc3)NC(=O)[C@H](Cc3ccc(O)cc3)NC(=O)[C@@H](N)CCCCN)C(C)C)[C@@H](C)O)C(=O)NCC(=O)N[C@@H](CCCCN)C(=O)N[C@@H](Cc3c[nH]cn3)C(=O)N[C@@H](CO)C(=O)N2)C(C)C)[C@@H](C)O)[C@@H](C)O)CSSC[C@@H](C(N)=O)NC(=O)[C@H](CCCCN)NC(=O)[C@H](Cc2c[nH]cn2)NC(=O)[C@H](CC(N)=O)NC(=O)CNC(=O)[C@H](CCC(N)=O)NC(=O)[C@H](Cc2c[nH]cn2)NC(=O)CNC(=O)CNC(=O)[C@H]([C@@H](C)O)NC(=O)[C@H](C)NC(=O)[C@H](Cc2c[nH]c3ccccc23)NC(=O)[C@H](C)NC(=O)[C@H](CCSC)NC(=O)[C@H](C)NC(=O)CNC(=O)[C@H](CC(N)=O)NC(=O)[C@H](CC(N)=O)NC(=O)[C@H]([C@@H](C)CC)NC1=O [synthetic pediocin PA-1, reference compound]			~40
synthetic pediocin-Atto488 conjugate: Atto488 conjugated to the synthetic pediocin using EDC-NHS coupling (KYYGNGVTCGKHSCSVDWGKATTCIINNGAMAWATGGHQGNHKC; disulfide (positions not given here); ends not checked; also: Atto488 conjugated via EDC-NHS, site not given here; UniProt P29430 19-62, looked up)	inactive		
